Laboratory results taken from article PMC3262027 (Journal of Medicinal Chemistry, 2011).

Experiments:
[1] = target: T1, human quinone reductase 2 (QR2) (Homo sapiens, UniProt P16083); experiment: QR2 steady-state kinetic assay; assay type: biochemical; conditions: for inhibitory activity against QR2: result in words
T1 sequence (P16083 1-231): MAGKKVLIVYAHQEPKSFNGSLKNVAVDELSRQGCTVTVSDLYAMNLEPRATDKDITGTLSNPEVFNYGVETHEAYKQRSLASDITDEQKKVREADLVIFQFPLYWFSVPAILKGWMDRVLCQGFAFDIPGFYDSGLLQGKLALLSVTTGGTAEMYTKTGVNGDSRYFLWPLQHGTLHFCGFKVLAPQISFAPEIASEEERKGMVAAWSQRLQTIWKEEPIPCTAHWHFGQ

[2] = system: normal prostate stromal cells (PrSCs); conditions: result in words; cited from earlier work
[3] = system: normal prostate epithelial cells (PrECs); conditions: result in words; cited from earlier work

Question: Which “increase in QR2 inhibitory activity” value ([1]; relative to 12) does the source give for COC(=O)c1cc(C(N)=O)nc2cc(N)c(N)c(Cl)c12 [Compound 23, Methyl 6,7-Diamino-2-carbamoyl-5-chloroquinoline-4-carboxylate] here?
Answer: Its value is 10 fold.

Question: Which “inhibitory activity against QR2” value [1] does the source give for COC(=O)C1CC(O)(C(=O)OC)c2c(N)c(Cl)cc(Cl)c2N1 (centres unmarked) [Compound 26, Dimethyl 5-Amino-6,8-dichloro-4-hydroxy-1,2,3,4-tetrahydroquinoline-2,4-dicarboxylate] here?
Answer: The value was “none showed inhibitory activity”.

Question: Which “inhibitory activity against QR2” value [1] does the source give for COC(=O)C1CC2(O)C(=O)Nc3c(Cl)cc(Cl)c(c32)N1 (centres unmarked) [Compound 33, Methyl 6,8-Dichloro-2a-hydroxy-2-oxo-1,2,2a,3,4,5-hexahydropyrrolo[4,3,2-d,e]quinoline-4-carboxylate] here?
Answer: Its value is “none showed inhibitory activity”.

Question: Which “effect on cellular proliferation of PrSCs” value [2] does the source give for Oc1ccc(/C=C/c2cc(O)cc(O)c2)cc1 [resveratrol] here?
Answer: The value was “dose-dependent inhibition of cellular proliferation”.

Question: What about the “effect on PrEC growth” value [3] of the same compound?
Answer: The value was “no effect”.
